Series [1] concerns the target T1, C-C chemokine receptor type 5 (Homo sapiens, UniProt P51681). Kind of series: Displacement of [125I]-labeled MIP-1alpha from the C-C chemokine receptor type 5 expressed on CHO cell membranes. Type of series: cell-based.
Target sequence in this assay (P51681 whole entry): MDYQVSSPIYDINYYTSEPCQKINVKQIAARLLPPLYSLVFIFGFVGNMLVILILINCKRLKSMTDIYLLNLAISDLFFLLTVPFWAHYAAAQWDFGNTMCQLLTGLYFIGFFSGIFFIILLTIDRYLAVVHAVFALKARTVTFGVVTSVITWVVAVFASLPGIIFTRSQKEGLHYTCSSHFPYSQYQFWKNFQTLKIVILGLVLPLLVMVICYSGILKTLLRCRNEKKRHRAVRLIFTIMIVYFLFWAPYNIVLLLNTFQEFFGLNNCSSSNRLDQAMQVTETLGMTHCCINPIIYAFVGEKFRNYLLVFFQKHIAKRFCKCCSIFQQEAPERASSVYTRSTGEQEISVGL
Series [2] has as its target T1, C-C chemokine receptor type 5. Put plainly: biochemical. The class given is cell-based, CHO.
Target sequence in this assay (P51681 whole entry): as above
Series [3] in a line: Half-life period was determined for the compound in rat. The class given is ADME, organism-based. The settings on record: in vivo.
Series [4] in a line: Inhibition (CIC90) of a single HIV-1 (BAL) infection cycle in HeLa Magi cells expressing both CXCR4 and CCR5 receptors over a 48 h period. Type of series: functional. The settings on record: Homo sapiens.
Series [5] is described as follows: Plasma clearance rate was determined for the compound in rat. Type of series: ADME, organism-based. The conditions noted are these: read-out: Clp.
For series [6], the target named is T1, C-C chemokine receptor type 5. Kind of series: Concentration that inhibits the entry of HIV-1 in to peripheral blood mononuclear cells (PBMCs) via the antagonism of CCR5 receptor. Type of series: functional.
Target sequence in this assay (P51681 whole entry, looked up): as the sequence (P51681 whole entry) above

A value given as a limit tells only on which side of the number the result lay.

As a reminder, the IC50 is the concentration at which inhibition is half-maximal. A low value points to greater potency. As to `OC1(CCCc2cccnc2)CCN(C[C@H]2CN(CC3CCCCC3)C[C@@H]2c2ccccc2)CC1`, the IC50 in series [1] was 6 nM.
As usually defined, the half-life is the time needed for the level to fall by half in the phase considered. A lower half-life goes with fast loss. A word on the IC90: it is the concentration at which the effect reaches the 90% level. Read a low IC90 as an effect from little substance. Compound `OC1(CCCc2ccc(-c3nnn[nH]3)cc2)CCN(C[C@H]2CN(CC3CCCCC3)C[C@@H]2c2ccccc2)CC1` yielded an IC50 in series [2] of 0.2 nM. For the same compound, the half-life in series [3] turned out to be 20 min. This compound yielded an IC90 in series [4] of 4 nM. The clearance in series [5] came to 61 mL/min/kg.
As usually defined, the IC95 is the concentration needed for an effect of 95%. The low end stands for greater potency, the high end for weaker potency. Regarding `OC1(CCCc2ccccc2)CCN(C[C@H]2CN(CC3CCCCC3)C[C@@H]2c2ccccc2)CC1`, it took 580 nM to reach the 95% level in series [6] (IC95). This compound displayed a 90% effect concentration (IC90) in series [4] of 200 nM. Moreover, the concentration for half-maximal inhibition (IC50) in series [1] was 0.3 nM.
In series [2], `O=C(O)CCc1ccc(CCCC2(O)CCN(C[C@H]3CN(CC4CCCCC4)C[C@@H]3c3ccccc3)CC2)cc1` showed an IC50 of 2 nM. Further, the 90% effect level in series [4] (IC90) was put at 40 nM.
For the compound `OC1(CCCc2ccc(Cc3nnn[nH]3)cc2)CCN(C[C@H]2CN(CC3CCCCC3)C[C@@H]2c2ccccc2)CC1`, the IC50 in series [2] amounted to 1 nM. In series [4], the 90% effect concentration (IC90) amounted to 100 nM.
In series [1], `OC1(CCCc2ccccn2)CCN(C[C@H]2CN(CC3CCCCC3)C[C@@H]2c2ccccc2)CC1` came in with an IC50 of 7 nM.
Compound `O=C(O)c1ccccc1CCCC1(O)CCN(C[C@H]2CN(CC3CCCCC3)C[C@@H]2c2ccccc2)CC1` came in with a concentration for half-maximal inhibition (IC50) in series [2] of 100 nM. Also, in series [4], the IC90 was above 1000 nM.
The matching figures for `O=C(O)Cc1ccc(CCCC2(O)CCN(C[C@H]3CN(CC4CCCCC4)C[C@@H]3c3ccccc3)CC2)cc1`: 5 nM and 100 nM.
As for `OC1(CCCc2ccncc2)CCN(C[C@H]2CN(CC3CCCCC3)C[C@@H]2c2ccccc2)CC1`, the IC50 in series [1] is 12 nM.
The compound `C[n+]1n[nH]c(-c2ccc(CCCC3(O)CCN(C[C@H]4CN(CC5CCCCC5)C[C@@H]4c4ccccc4)CC3)cc2)n1` gave a 50% inhibitory concentration (IC50) in series [2] of 0.4 nM. The same compound came in with an IC90 in series [4] above 300 nM.
The matching figures for `O=C(O)c1ccc(CCCC2(O)CCN(C[C@H]3CN(CC4CCCCC4)C[C@@H]3c3ccccc3)CC2)cc1`: 10 nM and 1000 nM.
With `O=C(O)c1cccc(CCCC2(O)CCN(C[C@H]3CN(CC4CCCCC4)C[C@@H]3c3ccccc3)CC2)c1`, in series [2], the IC50 was 3 nM. For the same compound, the IC90 in series [4] was above 1000 nM.
With `Cn1nnnc1-c1ccc(CCCC2(O)CCN(C[C@H]3CN(CC4CCCCC4)C[C@@H]3c3ccccc3)CC2)cc1`, in series [2], the 50% inhibitory concentration (IC50) is 0.2 nM. The same compound yielded an IC90 in series [4] of 100 nM.
As to `C=CCN(C(=O)OCc1ccc([N+](=O)[O-])cc1)C1CCN(C[C@H]2CN(C(=O)c3ccccc3Cl)C[C@@H]2c2ccccc2)CC1`, in series [6], the IC95 was 31 nM. In series [4], this compound registered an IC90 of 1 nM.
As to `O=C(O)Cc1cccc(CCCC2(O)CCN(C[C@H]3CN(CC4CCCCC4)C[C@@H]3c3ccccc3)CC2)c1`, in series [2], the midpoint of inhibition, the IC50, lay at 6 nM. Besides, it took 300 nM to reach the 90% level in series [4] (IC90).

These data come from ChEMBL document CHEMBL1134919, “1,3,4-Trisubstituted pyrrolidine CCR5 receptor antagonists. Part 3: polar functionality and its effect on anti-HIV-1 activity” (Bioorg Med Chem Lett, 2002).
